Results as given in ChEMBL document CHEMBL5291721, “A preclinical secondary pharmacology resource illuminates target-adverse drug reaction associations of marketed drugs” (Nat Commun, 2023).

Columns and labels:
[1] = target: T1, Alpha-1A adrenergic receptor (Homo sapiens, UniProt P35348); format: functional, cell-based
T1 sequence (P35348 whole entry): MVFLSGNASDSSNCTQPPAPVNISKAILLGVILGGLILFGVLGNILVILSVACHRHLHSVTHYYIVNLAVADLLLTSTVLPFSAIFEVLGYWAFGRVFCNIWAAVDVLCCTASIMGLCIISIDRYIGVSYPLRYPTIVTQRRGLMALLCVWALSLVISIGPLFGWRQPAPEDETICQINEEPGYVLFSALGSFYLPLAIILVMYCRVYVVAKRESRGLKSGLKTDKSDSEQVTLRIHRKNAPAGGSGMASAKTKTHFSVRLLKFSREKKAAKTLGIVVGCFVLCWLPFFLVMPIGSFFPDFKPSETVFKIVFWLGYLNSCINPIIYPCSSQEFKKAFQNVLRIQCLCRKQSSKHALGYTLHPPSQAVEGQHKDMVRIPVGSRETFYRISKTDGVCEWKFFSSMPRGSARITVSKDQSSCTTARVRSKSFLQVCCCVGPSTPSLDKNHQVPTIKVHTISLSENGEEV

[2] = target: Beta-1 adrenergic receptor (Homo sapiens, UniProt P08588); format: functional
[3] = target: Gamma-aminobutyric acid receptor subunit alpha-1 (Rattus norvegicus, UniProt P62813)
Histamine H3 receptor = Histamine H3 receptor (Homo sapiens, UniProt Q9Y5N1)
[4] = target: T2, 5-hydroxytryptamine receptor 1A (Homo sapiens, UniProt P08908)
T2 sequence (P08908 whole entry): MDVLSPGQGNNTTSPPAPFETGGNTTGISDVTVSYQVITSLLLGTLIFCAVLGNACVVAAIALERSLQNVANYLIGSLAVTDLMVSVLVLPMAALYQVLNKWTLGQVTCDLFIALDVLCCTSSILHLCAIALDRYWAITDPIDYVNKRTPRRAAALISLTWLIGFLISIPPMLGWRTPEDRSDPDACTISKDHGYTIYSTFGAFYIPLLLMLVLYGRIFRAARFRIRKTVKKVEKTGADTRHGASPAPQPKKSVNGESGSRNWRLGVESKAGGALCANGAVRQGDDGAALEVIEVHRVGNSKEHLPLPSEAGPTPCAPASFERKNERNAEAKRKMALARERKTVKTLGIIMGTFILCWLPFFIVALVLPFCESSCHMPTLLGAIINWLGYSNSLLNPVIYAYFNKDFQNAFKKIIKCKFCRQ

[5] = target: T3, Amine oxidase [flavin-containing] A (Homo sapiens, UniProt P21397); format: functional
T3 sequence (P21397 whole entry): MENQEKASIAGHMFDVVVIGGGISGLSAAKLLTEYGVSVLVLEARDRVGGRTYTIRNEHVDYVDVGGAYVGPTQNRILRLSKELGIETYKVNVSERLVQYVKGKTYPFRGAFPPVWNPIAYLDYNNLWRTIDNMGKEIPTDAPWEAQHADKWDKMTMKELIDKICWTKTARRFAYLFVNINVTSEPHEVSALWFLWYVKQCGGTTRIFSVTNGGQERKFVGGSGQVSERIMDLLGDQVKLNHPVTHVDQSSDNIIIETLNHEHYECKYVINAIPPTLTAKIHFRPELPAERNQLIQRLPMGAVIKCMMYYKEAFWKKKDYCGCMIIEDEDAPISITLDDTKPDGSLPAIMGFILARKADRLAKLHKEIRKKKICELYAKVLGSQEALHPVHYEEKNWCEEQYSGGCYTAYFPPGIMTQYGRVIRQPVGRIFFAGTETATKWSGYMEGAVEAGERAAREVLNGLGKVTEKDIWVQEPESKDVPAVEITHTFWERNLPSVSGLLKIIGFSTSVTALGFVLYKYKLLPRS

[6] = target: cGMP-inhibited 3',5'-cyclic phosphodiesterase 3A (Homo sapiens, UniProt Q14432); format: functional
[7] = target: 3',5'-cyclic-AMP phosphodiesterase 4A (Homo sapiens, UniProt P27815); format: functional
[8] = target: Prostaglandin G/H synthase 1 (Homo sapiens, UniProt P23219); format: functional
[9] = target: Sodium-dependent noradrenaline transporter (Homo sapiens, UniProt P23975)
[10] = target: Sodium-dependent dopamine transporter (Homo sapiens, UniProt Q01959)
[11] = target: Sodium-dependent serotonin transporter (Homo sapiens, UniProt P31645)
[12] = target: Gamma-aminobutyric acid receptor subunit alpha-1/alpha-2/beta-2/gamma-2 (Homo sapiens, UniProt P14867+P18507+P47869+P47870); format: protein-complex assay
Also: assay procedure not described here.

Sodium-dependent dopamine transporter, sequence (Q01959 whole entry): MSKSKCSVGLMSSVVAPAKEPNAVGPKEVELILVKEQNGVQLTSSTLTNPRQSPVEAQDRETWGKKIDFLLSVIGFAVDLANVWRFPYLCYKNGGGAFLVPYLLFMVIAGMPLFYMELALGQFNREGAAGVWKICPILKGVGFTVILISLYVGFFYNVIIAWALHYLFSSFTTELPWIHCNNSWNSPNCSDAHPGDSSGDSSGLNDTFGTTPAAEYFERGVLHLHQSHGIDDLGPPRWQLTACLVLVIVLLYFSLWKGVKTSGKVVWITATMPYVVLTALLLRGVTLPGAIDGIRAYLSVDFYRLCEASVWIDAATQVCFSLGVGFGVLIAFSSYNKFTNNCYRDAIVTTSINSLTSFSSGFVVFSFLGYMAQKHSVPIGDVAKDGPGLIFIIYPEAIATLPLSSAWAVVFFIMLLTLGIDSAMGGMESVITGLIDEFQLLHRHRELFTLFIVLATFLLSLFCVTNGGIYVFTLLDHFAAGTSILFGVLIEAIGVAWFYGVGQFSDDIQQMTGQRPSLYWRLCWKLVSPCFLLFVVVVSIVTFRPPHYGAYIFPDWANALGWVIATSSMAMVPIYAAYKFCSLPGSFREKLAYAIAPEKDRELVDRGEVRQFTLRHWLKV
Prostaglandin G/H synthase 1, sequence (P23219 whole entry): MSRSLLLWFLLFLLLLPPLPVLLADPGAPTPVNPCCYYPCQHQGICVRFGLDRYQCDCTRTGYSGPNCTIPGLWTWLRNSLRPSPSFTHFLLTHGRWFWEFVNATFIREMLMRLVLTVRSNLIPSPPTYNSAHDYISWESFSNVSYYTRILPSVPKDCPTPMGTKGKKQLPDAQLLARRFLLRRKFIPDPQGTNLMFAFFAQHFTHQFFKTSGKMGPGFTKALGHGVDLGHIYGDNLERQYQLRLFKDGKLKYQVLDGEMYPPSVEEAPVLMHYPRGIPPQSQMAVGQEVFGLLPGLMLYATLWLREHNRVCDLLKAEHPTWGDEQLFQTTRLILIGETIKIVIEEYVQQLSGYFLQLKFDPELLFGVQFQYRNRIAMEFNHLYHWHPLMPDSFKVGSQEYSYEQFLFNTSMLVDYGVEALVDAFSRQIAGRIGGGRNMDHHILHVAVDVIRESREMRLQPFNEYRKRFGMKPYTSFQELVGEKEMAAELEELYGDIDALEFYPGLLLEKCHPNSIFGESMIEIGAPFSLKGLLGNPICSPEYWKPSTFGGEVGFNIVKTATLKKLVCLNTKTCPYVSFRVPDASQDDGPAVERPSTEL
Gamma-aminobutyric acid receptor subunit alpha-1, sequence (P62813 whole entry): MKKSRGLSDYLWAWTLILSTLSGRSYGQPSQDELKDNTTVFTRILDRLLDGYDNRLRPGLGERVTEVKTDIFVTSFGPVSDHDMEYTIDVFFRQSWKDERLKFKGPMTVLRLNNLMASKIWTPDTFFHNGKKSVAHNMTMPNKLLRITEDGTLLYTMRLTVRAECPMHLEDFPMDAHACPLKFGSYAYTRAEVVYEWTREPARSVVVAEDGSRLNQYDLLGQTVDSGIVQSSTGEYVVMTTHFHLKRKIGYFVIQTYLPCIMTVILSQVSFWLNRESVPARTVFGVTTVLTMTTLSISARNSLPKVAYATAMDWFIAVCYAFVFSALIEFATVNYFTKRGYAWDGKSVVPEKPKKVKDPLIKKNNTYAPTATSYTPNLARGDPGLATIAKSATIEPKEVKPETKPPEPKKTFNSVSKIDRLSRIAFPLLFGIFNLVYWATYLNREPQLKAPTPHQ
Sodium-dependent noradrenaline transporter, sequence (P23975 whole entry): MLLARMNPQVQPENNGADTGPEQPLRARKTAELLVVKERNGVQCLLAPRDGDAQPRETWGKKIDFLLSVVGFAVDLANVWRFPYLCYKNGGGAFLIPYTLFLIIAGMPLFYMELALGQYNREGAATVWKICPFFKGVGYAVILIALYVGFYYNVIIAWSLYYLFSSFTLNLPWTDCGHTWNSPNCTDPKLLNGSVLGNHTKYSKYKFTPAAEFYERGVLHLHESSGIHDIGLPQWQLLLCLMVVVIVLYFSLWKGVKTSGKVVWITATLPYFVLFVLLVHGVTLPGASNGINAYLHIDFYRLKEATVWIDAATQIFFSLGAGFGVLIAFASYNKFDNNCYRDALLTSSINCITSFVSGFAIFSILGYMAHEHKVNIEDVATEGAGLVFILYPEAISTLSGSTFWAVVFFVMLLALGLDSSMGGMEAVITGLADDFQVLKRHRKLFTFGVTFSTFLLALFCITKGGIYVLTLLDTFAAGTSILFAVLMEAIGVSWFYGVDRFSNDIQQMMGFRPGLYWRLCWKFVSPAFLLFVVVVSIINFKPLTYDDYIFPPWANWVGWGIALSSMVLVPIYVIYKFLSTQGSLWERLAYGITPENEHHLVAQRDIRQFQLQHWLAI
Histamine H3 receptor, sequence (Q9Y5N1 whole entry): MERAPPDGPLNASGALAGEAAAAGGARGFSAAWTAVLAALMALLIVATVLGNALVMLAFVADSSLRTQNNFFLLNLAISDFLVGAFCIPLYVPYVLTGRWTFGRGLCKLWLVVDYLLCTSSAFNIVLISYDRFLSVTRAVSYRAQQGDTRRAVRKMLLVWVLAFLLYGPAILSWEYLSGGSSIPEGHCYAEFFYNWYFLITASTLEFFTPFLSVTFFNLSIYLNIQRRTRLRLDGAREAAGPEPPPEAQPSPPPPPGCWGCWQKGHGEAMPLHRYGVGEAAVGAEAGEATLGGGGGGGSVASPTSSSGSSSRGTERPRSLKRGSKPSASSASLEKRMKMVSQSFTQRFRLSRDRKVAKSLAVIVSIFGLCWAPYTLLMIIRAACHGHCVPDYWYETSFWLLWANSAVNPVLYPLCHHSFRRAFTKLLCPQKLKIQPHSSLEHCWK
Beta-1 adrenergic receptor, sequence (P08588 whole entry): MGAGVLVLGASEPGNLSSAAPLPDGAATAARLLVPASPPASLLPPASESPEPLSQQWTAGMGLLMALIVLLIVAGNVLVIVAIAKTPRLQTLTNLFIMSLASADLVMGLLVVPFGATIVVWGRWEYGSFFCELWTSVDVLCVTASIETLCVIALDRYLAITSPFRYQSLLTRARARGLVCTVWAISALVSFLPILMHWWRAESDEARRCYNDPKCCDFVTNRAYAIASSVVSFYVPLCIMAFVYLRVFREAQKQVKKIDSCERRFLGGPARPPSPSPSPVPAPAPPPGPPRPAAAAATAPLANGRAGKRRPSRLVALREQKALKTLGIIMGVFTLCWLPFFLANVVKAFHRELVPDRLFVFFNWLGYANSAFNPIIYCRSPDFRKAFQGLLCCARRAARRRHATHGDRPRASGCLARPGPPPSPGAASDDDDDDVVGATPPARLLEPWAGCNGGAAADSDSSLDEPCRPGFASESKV
cGMP-inhibited 3',5'-cyclic phosphodiesterase 3A, sequence (Q14432 whole entry): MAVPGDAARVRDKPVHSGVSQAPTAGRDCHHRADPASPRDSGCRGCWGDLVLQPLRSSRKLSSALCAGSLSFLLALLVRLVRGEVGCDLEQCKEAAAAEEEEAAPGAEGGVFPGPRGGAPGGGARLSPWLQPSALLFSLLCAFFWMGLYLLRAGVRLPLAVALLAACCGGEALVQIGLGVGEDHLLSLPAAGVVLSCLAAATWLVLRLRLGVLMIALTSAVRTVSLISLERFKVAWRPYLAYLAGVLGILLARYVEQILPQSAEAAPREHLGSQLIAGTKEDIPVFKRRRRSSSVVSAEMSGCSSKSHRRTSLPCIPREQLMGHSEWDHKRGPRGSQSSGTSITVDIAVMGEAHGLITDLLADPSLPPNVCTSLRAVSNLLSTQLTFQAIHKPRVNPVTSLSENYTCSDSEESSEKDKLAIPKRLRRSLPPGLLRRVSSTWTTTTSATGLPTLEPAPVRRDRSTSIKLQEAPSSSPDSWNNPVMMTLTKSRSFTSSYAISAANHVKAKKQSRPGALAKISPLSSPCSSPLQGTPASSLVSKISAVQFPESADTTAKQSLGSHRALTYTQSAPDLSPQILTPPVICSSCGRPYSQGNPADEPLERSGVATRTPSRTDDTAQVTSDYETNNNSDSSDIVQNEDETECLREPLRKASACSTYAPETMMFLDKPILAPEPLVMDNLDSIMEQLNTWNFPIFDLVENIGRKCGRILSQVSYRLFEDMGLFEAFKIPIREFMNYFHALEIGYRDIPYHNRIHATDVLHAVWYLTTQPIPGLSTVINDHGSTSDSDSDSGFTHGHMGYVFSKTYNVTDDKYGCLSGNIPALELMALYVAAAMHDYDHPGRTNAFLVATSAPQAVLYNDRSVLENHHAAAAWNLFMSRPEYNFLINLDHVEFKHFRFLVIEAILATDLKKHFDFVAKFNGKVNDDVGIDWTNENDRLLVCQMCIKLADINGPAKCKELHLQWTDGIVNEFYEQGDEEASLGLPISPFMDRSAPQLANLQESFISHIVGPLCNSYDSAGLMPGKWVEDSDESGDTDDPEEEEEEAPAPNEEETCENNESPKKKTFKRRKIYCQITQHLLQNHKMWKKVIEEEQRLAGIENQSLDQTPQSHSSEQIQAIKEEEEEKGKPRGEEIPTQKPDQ
Sodium-dependent serotonin transporter, sequence (P31645 whole entry): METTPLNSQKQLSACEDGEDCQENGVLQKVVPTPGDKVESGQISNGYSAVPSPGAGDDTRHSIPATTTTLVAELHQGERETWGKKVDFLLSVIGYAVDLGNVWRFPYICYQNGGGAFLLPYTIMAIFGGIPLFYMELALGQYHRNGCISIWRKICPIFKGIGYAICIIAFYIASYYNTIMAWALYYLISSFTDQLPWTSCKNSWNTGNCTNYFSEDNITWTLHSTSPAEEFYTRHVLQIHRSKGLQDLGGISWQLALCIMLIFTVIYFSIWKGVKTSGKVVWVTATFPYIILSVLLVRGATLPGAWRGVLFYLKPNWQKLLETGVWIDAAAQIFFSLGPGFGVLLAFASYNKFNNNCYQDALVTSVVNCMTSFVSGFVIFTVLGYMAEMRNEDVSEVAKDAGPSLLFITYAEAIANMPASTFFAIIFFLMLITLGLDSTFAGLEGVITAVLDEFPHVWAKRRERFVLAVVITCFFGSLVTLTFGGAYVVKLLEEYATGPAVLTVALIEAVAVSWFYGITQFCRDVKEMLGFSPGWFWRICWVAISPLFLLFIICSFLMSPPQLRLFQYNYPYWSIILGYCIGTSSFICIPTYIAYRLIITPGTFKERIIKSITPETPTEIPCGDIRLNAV

Row | SMILES | AC50 [1] | AC50 [2] | AC50 [3] | AC50 (Histamine H3 receptor) | AC50 [4] | AC50 [5] | AC50 [6] | AC50 [7] | AC50 [8] | AC50 [9] | AC50 [10] | AC50 [11] | AC50 [12]
1 | CCC(CC)(CC(=O)Nc1cccc(/C=C/c2nc(C3CCC3)cs2)c1)C(=O)O | > 10 µM | 14 µM | > 30 µM | > 30 µM | > 30 µM | > 30 µM | > 30 µM | > 30 µM | > 30 µM | > 30 µM | > 30 µM | > 30 µM | 
2 | CCCCCNC(=N)N/N=C/c1c[nH]c2ccc(OC)cc12 [TEGASEROD] | > 3 µM | 7.02 µM | > 30 µM | > 30 µM | 0.04 µM | 23.6 µM | > 30 µM | > 30 µM | 2.65 µM | 0.26 µM | 1.85 µM | 2.57 µM | 
3 | O=[N+]([O-])O[C@@H]1CO[C@H]2[C@@H]1OC[C@@H]2O [ISOSORBIDE MONONITRATE] | > 30 µM | > 10 µM | > 30 µM | > 30 µM | > 30 µM | > 30 µM | > 30 µM | > 30 µM | > 30 µM | > 30 µM | > 30 µM | > 30 µM | 
4 | COc1ccc2c(c1)N(C[C@H](C)CN(C)C)c1ccccc1S2 [LEVOMEPROMAZINE] |  |  |  | > 30 µM | 2.84 µM | > 30 µM | > 30 µM | > 30 µM | > 30 µM | > 30 µM |  | > 30 µM | > 30 µM
5 | COc1ccc(C(=O)Nc2ccccc2CCC2CCCCN2C)cc1 (configuration not stated) [ENCAINIDE] | > 30 µM | > 10 µM | > 30 µM | > 30 µM | > 30 µM | > 30 µM | > 30 µM | > 30 µM | > 30 µM | > 30 µM | > 30 µM | > 30 µM | 
6 | COc1cc2c3cc1Oc1cc(ccc1O)C[C@@H]1c4c(cc(OC)c(O)c4Oc4ccc(cc4)C[C@@H]3N(C)CC2)CC[N+]1(C)C [TUBOCURARINE] | > 30 µM |  |  | > 30 µM | > 30 µM | > 30 µM | > 30 µM | > 30 µM | > 30 µM | > 30 µM | > 30 µM |  | > 30 µM
7 | NC(=O)C[C@H](N)C(=O)O [ASPARAGINE] | > 30 µM |  | > 30 µM | > 30 µM | > 30 µM | > 30 µM | > 30 µM | > 30 µM | > 30 µM | > 30 µM | > 30 µM | > 30 µM | 
8 | CCN(CC)CCNc1ccc(CO)c2sc3ccccc3c(=O)c12 [HYCANTHONE] | > 30 µM |  | > 30 µM | 2.14 µM | 7.25 µM | > 30 µM | > 30 µM | > 30 µM | > 30 µM | 11.9 µM | 12.5 µM | 16 µM | 
9 | CCN(CC)CCc1nc(-c2ccccc2)no1 [OXOLAMINE] | > 30 µM |  | > 30 µM | 23.9 µM | 15.5 µM | > 30 µM | > 30 µM | > 30 µM | > 30 µM | > 30 µM | > 30 µM | > 30 µM | 
10 | COC1=C(OC)C(=O)C(C/C=C(\C)CC/C=C(\C)CC/C=C(\C)CC/C=C(\C)CC/C=C(\C)CC/C=C(\C)CC/C=C(\C)CC/C=C(\C)CC/C=C(\C)CCC=C(C)C)=C(C)C1=O [UBIDECARENONE] | > 30 µM |  | > 30 µM | > 30 µM | > 30 µM | > 30 µM | > 30 µM | > 30 µM | > 30 µM | > 30 µM | > 30 µM | > 30 µM | 
11 | O=c1[nH]c(=O)n([C@H]2C[C@H](O)[C@@H](CO)O2)cc1F [FLOXURIDINE] | > 30 µM |  |  | > 30 µM | > 30 µM | > 30 µM | > 30 µM | > 30 µM | > 30 µM | > 30 µM | > 30 µM |  | > 30 µM
12 | CCC(C)(C)c1ccc(CC(C)CN2C[C@@H](C)O[C@@H](C)C2)cc1 (some centres not stated) [AMOROLFINE] | > 30 µM |  | > 30 µM | > 30 µM | > 30 µM | > 30 µM | > 30 µM | > 30 µM | > 30 µM | > 30 µM | > 30 µM | > 30 µM | 
13 | O=c1[nH]c(=O)n([C@H]2C[C@H](O)[C@@H](CO)O2)cc1I [IDOXURIDINE] | > 30 µM |  |  | > 30 µM | > 30 µM | > 30 µM | > 30 µM | > 30 µM | > 30 µM | > 30 µM | > 30 µM |  | > 30 µM
14 | CCCNC(C)C(=O)Nc1c(C)csc1C(=O)OC (configuration not stated) [ARTICAINE] | > 30 µM |  |  | > 30 µM |  | > 30 µM | > 30 µM | > 30 µM | > 30 µM | > 30 µM | > 30 µM | > 30 µM | > 30 µM
15 | Clc1ccc(C(OCCN2CCCCC2)c2ccccc2)cc1 (configuration not stated) [CLOPERASTINE] | > 30 µM |  | > 30 µM | > 30 µM | 20.1 µM | > 30 µM | > 30 µM | > 30 µM | > 30 µM | 6.39 µM | 1.09 µM | 15.4 µM | 
16 | CCCC1O[C@@H]2C[C@H]3[C@@H]4CCC5=CC(=O)C=C[C@]5(C)[C@H]4[C@@H](O)C[C@]3(C)[C@]2(C(=O)CO)O1 (some centres not stated) [BUDESONIDE] | > 30 µM | > 10 µM |  | > 30 µM | > 30 µM | > 30 µM | > 30 µM | > 30 µM | > 30 µM | > 30 µM | > 30 µM |  | > 30 µM
17 | CC(C)COC(=O)OCN1C(=O)CN(CCN2CC(=O)N(COC(=O)OCC(C)C)C(=O)C2)CC1=O [SOBUZOXANE] | > 30 µM |  | > 30 µM | > 30 µM | > 30 µM | > 30 µM | > 30 µM | > 30 µM | 29.8 µM | > 30 µM | > 30 µM | > 30 µM | 
18 | Cc1ccccc1OCC(O)CO (configuration not stated) [MEPHENESIN] | > 30 µM |  | > 10 µM | > 30 µM | > 30 µM | > 30 µM | > 30 µM | > 30 µM | > 30 µM | > 30 µM | > 30 µM | > 30 µM | 
19 | C[S+](CC[C@H](N)C(=O)[O-])C[C@H]1O[C@@H](n2cnc3c(N)ncnc32)[C@H](O)[C@@H]1O (some centres not stated) [ADEMETIONINE] | > 30 µM |  | > 30 µM | > 30 µM | > 30 µM | > 30 µM | > 30 µM | > 30 µM | > 30 µM | > 30 µM | > 30 µM | > 30 µM | 
